We go through 1 sequence from patent publication US20200230205A1, “COMPOSITIONS AND METHODS FOR TREATING MYELIN DISORDERS” (CASE WESTERN RESERVE UNIVERSITY, priority 2017, published 2020).

One assay relates to MMP-2. Put plainly: MMP-2 in OPC conditioned media or lysate (gelatin zymography, western blot). It is filed as cell-based, mouse. How it is done: To assess MMP-2 or 10 in OPC CM or lysates, OPCs were incubated on precoated PLL, aggrecan, and laminin as described above. OPCs were treated with vehicle, 2.5 μM ISP or SISP for 2 days at 37° C. CM was then harvested and concentrated using Milipore Ultracel YM-C centrifugal filter units at max speed (Eppendorf Centrifuge 5415D) for 30 minutes at 4° C. […] of concentrated CM was loaded into each lane. OPC lysates were assessed using western blot techniques described below with […] protein loaded from each group.
Tissue samples or cerebellar slices or purified OPC cells were homogenized with RIPA lysis buffer and protein concentration was determined by Pierce BCA protein assay kit according to the manufacture instruction (Thermo Fisher). Then, equal amounts of protein were loaded to 15% SDS-PAGE gels, and electrophoretically transferred to PVDF membranes (Millipore). The membranes were blocked in 0.1% TPBS buffer with 5% non-fat milk for 1h at room temperature and probed with indicated primary antibodies overnight at 4° C. and followed by secondary antibody conjugated to horseradish peroxidase (HRP). The following primary antibodies were used: MBP (SMI-99P, Covance, 1:1000), CS-56 (C8035, Sigma, 1:1000), Laminin (L9393, Sigma, 1:1000), GAPDH (AF5718, R and D Systems, 1:1000), MMP-2 (AF1488, R and D Systems, 1:1000), MMP-10 (MAB910, R and D Systems, 1:1000), and […] (sc-47778, Santa Cruz, 1:1000). Enhanced chemiluminescence was performed with a West Pico Kit (Thermo Fisher) and detected by FluorChem E system (ProteinSimple, USA). The density of bands was quantified using ImageJ software (NIH).
CM was collected from 1×10^6 OPCs incubated on PLL, 1 μg/mL laminin, and 2 μg/mL aggrecan coated 6-well plates. OPCs were treated with vehicle, 2.5 μM ISP or SISP for 2 days at 37° C. […] Following washes with destaining buffer (40% MeOH, 10% Acetic Acid), Zymograms were imaged and the amount of gelatin degradation was assessed using ImageJ in a method described in the western blot section.
For orientation: Immunoblotting shows a protein as a band on a membrane.

A further assay relates to MMP-10. The assay can be described thus: MMP-10 western blot of OPC conditioned media. The conditions noted are these: OPC CM, 2.5 μM peptide, same as vehicle. Type of assay: cell-based, mouse. The protocol:
To assess MMP-2 or 10 in OPC CM or lysates, OPCs were incubated on precoated PLL, aggrecan, and laminin as described above. OPCs were treated with vehicle, 2.5 μM ISP or SISP for 2 days at 37° C. CM was then harvested and concentrated using Milipore Ultracel YM-C centrifugal filter units at max speed (Eppendorf Centrifuge […]) for 30 minutes at 4° C. […] of concentrated CM was loaded into each lane. OPC lysates were assessed using western blot techniques described below with […] protein loaded from each group. Tissue samples or cerebellar slices or purified OPC cells were homogenized with RIPA lysis buffer and protein concentration was determined by Pierce BCA protein assay kit according to the manufacture instruction (Thermo Fisher). Then, equal amounts of protein were loaded to 15% SDS-PAGE gels, and electrophoretically transferred to PVDF membranes (Millipore). The membranes were blocked in 0.1% TPBS buffer with 5% non-fat milk for 1h at room temperature and probed with indicated primary antibodies overnight at 4° C. and followed by secondary antibody conjugated to horseradish peroxidase (HRP). […] Enhanced chemiluminescence was performed with a West Pico Kit (Thermo Fisher) and detected by FluorChem E system (ProteinSimple, USA). The density of bands was quantified using ImageJ software (NIH).

Turning to “GRKKRRQRRRCDMAEHMERLKANDSLKLSQEYESI [ISP]”, the “MMP-2 gelatin-degrading activity, zymography” value in the assay with MMP-2 (OPC CM, 2.5 μM ISP vs controls) is “significantly increased”. The “MMP-2 expression in OPC lysates normalized over GAPDH” value with MMP-2 (OPC lysates, ISP) was “decrease in MMP-2 expression”. Moreover, the “MMP-2 in OPC CM, western blot” value in the assay with MMP-2 (concentrated OPC CM, 2.5 μM ISP) is “clearly enhanced”. For the same sequence, in the assay on MMP-10, the “MMP-10 secretion, western blot” value was “equally low amounts”.
